Test results published in ChEMBL document CHEMBL5053532, “Bradykinin-Potentiating Peptide-Paclitaxel Conjugate Directed at Ectopically Expressed Angiotensin-Converting Enzyme in Triple-Negative Breast Cancer” (J Med Chem, 2021).
Calls of active or inactive are those of the source. The calls are words filed in the database; no cut-off is given here. Where a SMILES comes first, the peptide text is derived from it. The star is where a group is joined. Paclitaxel(2'-O-succinyl) = CC(=O)O[C@H]1C(=O)[C@@]2(C)[C@H]([C@H](OC(=O)c3ccccc3)[C@]3(O)C[C@H](OC(=O)[C@H](OC(=O)CCC(=O)*)[C@@H](NC(=O)c4ccccc4)c4ccccc4)C(C)=C1C3(C)C)[C@]1(OC(C)=O)CO[C@@H]1C[C@@H]2O

Tests used:
Mus musculus [1] = assay: Toxicity in BALB/c mouse xenografted with human […] cells assessed as decrease in body weight at 9.6 micromol/kg, ip measured after 28 days relative to control; type: organism-based; parameters: scale not given: the % may be the effect or the level left; details: 672 h, at 9.6 µmol/kg, time 28 day
MDA-MB-468 [2] = assay: Antiproliferative activity against ACE-positive human MDA-MB-468 cells incubated for 48 hrs by MTT assay; type: functional, cell-based; details: MDA-MB-468, 48 h
MDA-MB-231 [3] = assay: Induction of apoptosis in ACE-positive human MDA-MB-231 cells assessed as increase in apoptotic cells at 10 nM measured after 48 hrs by Annexin V-FITC/PI staining based fluorescence microscopy; type: functional, cell-based
[4] = Drug uptake in BALB/c mouse xenografted with human […] cells assessed as PTX level in lung at 17.6 micromol/kg, ip measured after 15 mins to 24 hrs; type: ADME, organism-based; details: in vivo, 0.25 h, dose 17.6 µmol/kg
Mus musculus [5] = assay: Toxicity in BALB/c mouse xenografted with human […] cells assessed as decrease in body weight at 2.4 micromol/kg, ip measured after 28 days relative to control; type: organism-based; parameters: scale not given: the % may be the effect or the level left; details: 672 h, at 2.4 µmol/kg, time 28 day
Mus musculus [6] = assay: Toxicity in BALB/c mouse xenografted with human […] cells assessed as reduction in WBC count at 9.6 micromol/kg, ip measured after 28 days relative to control; type: organism-based; parameters: scale not given: the % may be the effect or the level left; details: 672 h, at 9.6 µmol/kg, time 28 day
[7] = Acute toxicity in BALB/c mouse assessed as survival at 80 mg/kg, ip measured for 15 days; type: organism-based; details: in vivo, 360 h, time 15 day
MDA-MB-468 [8] = assay: Antitumor activity in human […] cells xenografted in Balb/c mouse assessed as reduction in tumor growth at 2.4 micromol/kg, ip measured after 28 days relative to control; type: functional; parameters: scale not given: the % may be the effect or the level left; details: dose 2.4 µmol/kg, time 28 day
MDA-MB-231 [9] = assay: Antiproliferative activity against ACE-positive human MDA-MB-231 cells incubated for 48 hrs by MTT assay; type: functional, cell-based; details: MDA-MB-231, 48 h
HEK-293T [10] = assay: Antiproliferative activity against ACE-negative human HEK293T cells incubated for 48 hrs by MTT assay; type: functional, cell-based
MDA-MB-231 [11] = assay: Potency index, ratio of PTX IC50 to test compound IC50 antiproliferative activity against ACE-positive human MDA-MB-231 cells incubated for 48 hrs by MTT assay; type: functional
[12] = Acute toxicity in BALB/c mouse assessed as survival at 100 mg/kg, ip measured for 15 days; type: organism-based; details: in vivo, 360 h, time 15 day
[13] = Drug uptake in BALB/c mouse xenografted with human […] cells assessed as PTX level in tumor at 17.6 micromol/kg, ip measured after 4 hrs; type: ADME, organism-based, Neoplasm; details: in vivo, dose 17.6 µmol/kg
[14] = Acute toxicity in BALB/c mouse assessed as rate of weight loss at 60 mg/kg, ip measured for 15 days; type: organism-based; details: in vivo, 360 h, time 15 day
[15] = Drug uptake in human MDA-MB-468 cells assessed as increase in PTX uptake rate at 10 to 20 uM measured after 2 hrs; type: ADME, cell-based; details: mda-mb-468, 2 h, dose 10-20 µM
MDA-MB-468 [16] = assay: Antitumor activity in human […] cells xenografted in Balb/c mouse assessed as reduction in tumor growth at 2.4 micromol/kg, ip measured after 4 days; type: functional, organism-based; details: dose 2.4 µmol/kg, time 4.0 day
[17] = Acute toxicity in BALB/c mouse assessed as rate of weight loss at 80 mg/kg, ip measured for 15 days; type: organism-based; details: in vivo, 360 h, time 15 day
[18] = Acute toxicity in BALB/c mouse assessed as rate of weight loss at 100 mg/kg, ip measured for 15 days; type: organism-based; details: in vivo, 360 h, time 15 day
MDA-MB-468 [19] = assay: Potency index, ratio of PTX IC50 to test compound IC50 antiproliferative activity against ACE-positive human MDA-MB-468 cells incubated for 48 hrs by MTT assay; type: functional
[20] = Stability of the compound in rat plasma assessed as drug residual at 10 uM measured after 48 hrs by LC/MS analysis; type: ADME, cell-free; details: read-out: Stability
[21] = Drug uptake in BALB/c mouse xenografted with human […] cells assessed as PTX level in kidney at 17.6 micromol/kg, ip measured after 15 mins to 24 hrs; type: ADME, organism-based; details: in vivo, 0.25 h, dose 17.6 µmol/kg
HEK-293T [22] = assay: Antiproliferative activity against human HEK293T cells expressing ACE containing plasmid incubated for 48 hrs by MTT assay; type: functional, cell-based
MDA-MB-468 [23] = assay: Antitumor activity in human […] cells xenografted in Balb/c mouse assessed as tumor weight at 2.4 micromol/kg, ip measured after 28 days (reference value: 0.43 g); type: functional; details: dose 2.4 µmol/kg, time 28 day
MDA-MB-468 [24] = assay: Induction of apoptosis in ACE-positive human MDA-MB-468 cells assessed as increase in apoptotic cells at 10 nM measured after 48 hrs by Annexin V-FITC/PI staining based fluorescence microscopy; type: functional, cell-based
HEK-293T [25] = assay: Potency index, ratio of PTX IC50 to test compound IC50 antiproliferative activity against ACE-negative human HEK293T cells incubated for 48 hrs by MTT assay; type: functional
[26] = Acute toxicity in BALB/c mouse assessed as survival at 60 mg/kg, ip measured for 15 days; type: organism-based; details: in vivo, 360 h, time 15 day
[27] = Drug uptake in BALB/c mouse xenografted with human […] cells assessed as PTX level in liver at 17.6 micromol/kg, ip measured after 15 mins to 24 hrs; type: ADME, organism-based; details: in vivo, 0.25 h, dose 17.6 µmol/kg
MDA-MB-468 [28] = assay: Antitumor activity in human […] cells xenografted in Balb/c mouse assessed as tumor weight at 9.6 micromol/kg, ip measured after 28 days (reference value: 0.43 g); type: functional; details: dose 9.6 µmol/kg, time 28 day
MDA-MB-468 [29] = assay: Antitumor activity in human […] cells xenografted in Balb/c mouse assessed as reduction in tumor growth at 9.6 micromol/kg, ip measured after 28 days relative to control; type: functional; parameters: scale not given: the % may be the effect or the level left; details: dose 9.6 µmol/kg, time 28 day
[30] = Drug uptake in BALB/c mouse xenografted with human […] cells assessed as PTX level in tumor at 17.6 micromol/kg, ip measured after 1 hr; type: ADME, organism-based, Neoplasm; details: in vivo, dose 17.6 µmol/kg
[31] = Stability of the compound in rat plasma assessed as half life at 10 uM measured after 72 hrs by LC/MS analysis; type: ADME, cell-free
[32] = Stability of the compound in PBS buffer assessed as half life at 10 uM measured after 72 hrs by LC/MS analysis; type: physicochemical
Mus musculus [33] = assay: Toxicity in BALB/c mouse xenografted with human […] cells assessed as reduction in WBC count at 2.4 micromol/kg, ip measured after 28 days relative to control; type: organism-based; parameters: scale not given: the % may be the effect or the level left; details: 672 h, at 2.4 µmol/kg, time 28 day
[34] = molecular target: Angiotensin-converting enzyme (Homo sapiens, UniProt P12821); assay: Binding affinity to human recombinant ACE protein assessed as dissociation constant incubated for 15 mins by […] binding analysis
Chain of Angiotensin-converting enzyme (P12821 whole entry): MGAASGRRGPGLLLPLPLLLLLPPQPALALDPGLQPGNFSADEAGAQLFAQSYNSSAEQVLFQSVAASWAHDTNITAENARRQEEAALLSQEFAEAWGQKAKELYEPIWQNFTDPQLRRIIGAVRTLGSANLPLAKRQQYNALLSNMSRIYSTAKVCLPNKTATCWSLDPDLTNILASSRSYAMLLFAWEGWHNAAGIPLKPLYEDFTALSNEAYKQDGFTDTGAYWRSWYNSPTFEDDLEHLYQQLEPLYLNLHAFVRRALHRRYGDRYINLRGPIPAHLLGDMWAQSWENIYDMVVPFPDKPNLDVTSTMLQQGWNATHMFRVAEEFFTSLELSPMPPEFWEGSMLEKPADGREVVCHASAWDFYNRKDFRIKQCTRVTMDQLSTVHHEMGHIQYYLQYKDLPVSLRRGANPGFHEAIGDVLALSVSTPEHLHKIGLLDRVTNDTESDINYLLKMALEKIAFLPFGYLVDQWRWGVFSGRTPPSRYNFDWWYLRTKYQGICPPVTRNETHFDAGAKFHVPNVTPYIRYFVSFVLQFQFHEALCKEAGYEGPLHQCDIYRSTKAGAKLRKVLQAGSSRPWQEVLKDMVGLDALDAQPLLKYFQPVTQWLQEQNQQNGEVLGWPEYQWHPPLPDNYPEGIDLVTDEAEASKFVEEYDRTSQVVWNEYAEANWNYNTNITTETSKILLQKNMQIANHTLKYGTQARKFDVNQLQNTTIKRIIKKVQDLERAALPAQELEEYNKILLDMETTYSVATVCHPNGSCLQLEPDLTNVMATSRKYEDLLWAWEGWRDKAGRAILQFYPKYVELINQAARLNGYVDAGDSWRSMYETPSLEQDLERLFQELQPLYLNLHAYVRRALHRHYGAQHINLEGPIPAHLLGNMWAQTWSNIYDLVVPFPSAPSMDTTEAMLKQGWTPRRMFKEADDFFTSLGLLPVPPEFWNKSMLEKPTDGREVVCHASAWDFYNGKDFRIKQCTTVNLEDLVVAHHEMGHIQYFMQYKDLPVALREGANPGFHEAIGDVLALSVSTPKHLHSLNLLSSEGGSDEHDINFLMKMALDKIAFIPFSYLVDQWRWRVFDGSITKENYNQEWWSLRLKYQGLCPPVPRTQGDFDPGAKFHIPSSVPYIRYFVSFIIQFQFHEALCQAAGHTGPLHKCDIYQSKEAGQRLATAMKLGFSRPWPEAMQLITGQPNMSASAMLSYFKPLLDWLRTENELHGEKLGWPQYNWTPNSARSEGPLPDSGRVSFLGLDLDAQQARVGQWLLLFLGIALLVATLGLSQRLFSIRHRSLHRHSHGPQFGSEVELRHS

[35] = Acute toxicity in BALB/c mouse assessed as rate of weight loss at 20 mg/kg, ip measured for 15 days; type: organism-based; details: in vivo, 360 h, time 15 day
[36] = Acute toxicity in BALB/c mouse assessed as rate of weight loss at 15 mg/kg, ip measured for 15 days; type: organism-based; details: in vivo, 360 h, time 15 day
[37] = Stability of the compound in rat plasma assessed as drug residual at 10 uM measured after 72 hrs by LC/MS analysis; type: ADME, cell-free; details: read-out: Stability
[38] = Drug uptake in BALB/c mouse xenografted with human […] cells measured in tumor at 17.6 micromol/kg, ip measured after 4 hrs; type: ADME, organism-based, Neoplasm; details: dose 17.6 µmol/kg, read-out: Drug uptake
[39] = Acute toxicity in BALB/c mouse assessed as survival at 20 mg/kg, ip measured for 15 days; type: organism-based; details: in vivo, 360 h, time 15 day
[40] = Stability of the compound in PBS buffer assessed as drug residual at 10 uM measured after 72 hrs by LC/MS analysis; type: physicochemical; details: read-out: Stability
MDA-MB-231 [41] = assay: Induction of apoptosis in ACE-positive human MDA-MB-231 cells assessed as increase in early apoptotic cells by measuring fragmented nuclei at 10 nM after 48 hrs by DAPI staining based fluorescence microscopy; type: functional, cell-based
[42] = Acute toxicity in BALB/c mouse assessed as survival at 15 mg/kg, ip measured for 15 days; type: organism-based; details: in vivo, 360 h, time 15 day
[43] = Drug uptake in BALB/c mouse xenografted with human […] cells measured in tumor at 17.6 micromol/kg, ip measured after 1 hr; type: ADME, organism-based, Neoplasm; details: dose 17.6 µmol/kg, read-out: Drug uptake
Mus musculus [44] = assay: Toxicity in BALB/c mouse xenografted with human […] cells assessed as body weight loss at 2.4 micromol/kg, ip measured upto 24 days; type: organism-based; details: 576 h, dose 2.4 µmol/kg, time < 24 day

## CC[C@H](C)[C@H](NC(=O)[C@H](CCC(N)=O)NC(=O)[C@@H]1CCCN1C(=O)[C@H](CCCNC(=N)N)NC(=O)[C@@H]1CCCN1C(=O)[C@H](Cc1c[nH]c2ccccc12)NC(=O)[C@H](CCC(=O)O)NC(=O)CCC(=O)O[C@@H](C(=O)O[C@H]1C[C@@]2(O)[C@@H](OC(=O)c3ccccc3)[C@@H]3[C@]4(OC(C)=O)CO[C@@H]4C[C@H](O)[C@@]3(C)C(=O)[C@H](OC(C)=O)C(=C1C)C2(C)C)[C@@H](NC(=O)c1ccccc1)c1ccccc1)C(=O)N1CCC[C@H]1C(=O)N1CCC[C@H]1C(N)=O ({Paclitaxel(2'-O-succinyl)}-EWPRPQIPP-NH2)
Mus musculus [1]
  Activity: 6.4%
MDA-MB-468 [2]
  IC50: 12.3 nM
MDA-MB-231 [3]
  Activity: Active
[4]
  Drug uptake: Active
Mus musculus [5]
  Activity: 2.8%
Mus musculus [6]
  Activity: 22%
[7]
  Activity: Non-Toxic
MDA-MB-468 [8]
  Activity: 54%
MDA-MB-231 [9]
  IC50: 9.5 nM
HEK-293T [10]
  IC50: 616 nM
MDA-MB-231 [11]
  Ratio IC50: 3.1
[12]
  Activity: Non-Toxic
[13]
  Drug uptake: 10458 ng/g
[14]
  Activity: 1.9%
[15]
  Drug uptake: Active
MDA-MB-468 [16]
  Activity: inactive
[17]
  Activity: 4.5%
[18]
  Activity: 7.2%
MDA-MB-468 [19]
  Ratio IC50: 4.1
[20]
  remaining at 48 h, 10 µM: 0.169%
[21]
  Drug uptake: Active
HEK-293T [22]
  Activity: Active
MDA-MB-468 [23]
  Activity: 0.2 g
MDA-MB-468 [24]
  Activity: Active
HEK-293T [25]
  Ratio IC50: 91.9
[26]
  Activity: Non-Toxic
[27]
  Drug uptake: Active
MDA-MB-468 [28]
  Activity: 0.16 g
MDA-MB-468 [29]
  Activity: 62%
[30]
  Drug uptake: 18067 ng/g
[31]
  half-life at 10 µM: 5.82 h
[32]
  half-life at 10 µM: 57.8 h
Mus musculus [33]
  Activity: 17%
[34]; read-out: Kd
  Kd: 380 nM

## CC(=O)O[C@H]1C(=O)[C@@]2(C)[C@H]([C@H](OC(=O)c3ccccc3)[C@]3(O)C[C@H](OC(=O)[C@H](O)[C@@H](NC(=O)c4ccccc4)c4ccccc4)C(C)=C1C3(C)C)[C@]1(OC(C)=O)CO[C@@H]1C[C@@H]2O [PACLITAXEL]
MDA-MB-468 [2]
  IC50: 3 nM
MDA-MB-231 [3]
  Activity: Active
[35]
  Activity: 8.7%
MDA-MB-468 [8]
  Activity: 15%
MDA-MB-231 [9]
  IC50: 3.1 nM
[36]
  Activity: 4%
[37]
  remaining at 72 h, 10 µM: 47.6%
[38]
  concentration at 4 h: 2250 ng/g
HEK-293T [10]
  IC50: 6.7 nM
MDA-MB-468 [16]
  Activity: inactive
[39]
  Activity: Non-Toxic
MDA-MB-468 [23]
  Activity: 0.26 g
MDA-MB-468 [24]
  Activity: Active
[40]
  remaining at 72 h, 10 µM: 70.3%
MDA-MB-231 [41]
  Activity: Active
MDA-MB-468 [29]
  Activity: 30%
[42]
  Activity: Non-Toxic
Mus musculus [33]
  Activity: 6.2%
[43]
  concentration at 1 h: 6470 ng/g
Mus musculus [44]
  Activity: Non-Toxic
[34]
  Kd: Not Active
